{
  "source": "ChEMBL document CHEMBL1145474",
  "about": "“Selective phosphorylation of antiviral drugs by vaccinia virus thymidine kinase” (Antimicrob Agents Chemother, 2007)",
  "molecules": {"B1": {"name": "Thymidine kinase (Vaccinia virus (strain Western Reserve) (VACV) (Vaccinia virus (strainWR))), P68563 (protein)", "chain": "MNGGHIQLIIGPMFSGKSTELIRRVRRYQIAQYKCVTIKYSNDNRYGTGLWTHDKNNFEALEATKLCDVLESITDFSVIGIDEGQFFPDIVEFCERMANEGKIVIVAALDGTFQRKPFNNILNLIPLSEMVVKLTAVCMKCFKEASFSKRLGEETEIEIIGGNDMYQSVCRKCYIDS"}},
  "key": {"Cowpox virus [1]": {"tested_on": "Cowpox virus", "assay": "microbe, parasite or virus in culture", "format": "functional, organism-based", "settings": "HFF, 48 h"}, "Cowpox virus [2]": {"tested_on": "Cowpox virus", "assay": "microbe, parasite or virus in culture", "format": "functional, organism-based", "settings": "HFF, 48 h", "remark": "listed apart in the source"}, "Human alphaherpesvirus 1 [3]": {"tested_on": "Human alphaherpesvirus 1", "assay": "microbe, parasite or virus in culture", "format": "functional, organism-based", "settings": "Human alphaherpesvirus 1, E377, HFF, 72 h"}, "Human alphaherpesvirus 1 [4]": {"tested_on": "Human alphaherpesvirus 1", "assay": "microbe, parasite or virus in culture", "format": "functional, organism-based", "settings": "Human alphaherpesvirus 1, DM2.1, HFF, 72 h"}, "Human alphaherpesvirus 2 [5]": {"tested_on": "Human alphaherpesvirus 2", "assay": "microbe, parasite or virus in culture", "format": "functional, organism-based", "settings": "Human alphaherpesvirus 2, AG3, HFF, 72 h"}, "Cowpox virus [6]": {"tested_on": "Cowpox virus", "assay": "microbe, parasite or virus in culture", "format": "functional, organism-based", "settings": "Brighton, HFF, 1 h"}, "Vaccinia virus": {"tested_on": "Vaccinia virus", "assay": "microbe, parasite or virus in culture", "format": "functional, organism-based", "settings": "Orthopoxvirus vaccinia, HFF, 1 h"}, "Human alphaherpesvirus 2 [7]": {"tested_on": "Human alphaherpesvirus 2", "assay": "microbe, parasite or virus in culture", "format": "functional, organism-based", "settings": "Human alphaherpesvirus 2, MS, HFF, 72 h"}, "Human alphaherpesvirus 3": {"tested_on": "Human alphaherpesvirus 3", "assay": "microbe, parasite or virus in culture", "format": "functional, organism-based", "settings": "Human alphaherpesvirus 3, Ellen, HFF, 240 h"}, "[8]": {"substrate": "CC1(C)CC(=O)C2=C(C1)OC(N)=C(C#N)C2c1cn([C@H]2C[C@H](O)[C@@H](CO)O2)c(=O)[nH]c1=O", "settings": "Orthopoxvirus vaccinia; WR"}, "[9]": {"substrate": "O=c1[nH]c(=O)n([C@H]2C[C@H](O)[C@@H](CO)O2)cc1F", "settings": "Orthopoxvirus vaccinia; WR"}, "[10]": {"substrate": "N#CC(C#N)=Cc1cn([C@H]2C[C@H](O)[C@@H](CO)O2)c(=O)[nH]c1=O", "settings": "Orthopoxvirus vaccinia; WR"}, "[11]": {"substrate": "CCOC(=O)/C(C#N)=C/c1cn([C@H]2C[C@H](O)[C@@H](CO)O2)c(=O)[nH]c1=O", "settings": "Orthopoxvirus vaccinia; WR"}, "[12]": {"substrate": "O=c1[nH]c(=O)n([C@H]2C[C@H](O)[C@@H](CO)O2)cc1Br", "settings": "Orthopoxvirus vaccinia; WR"}, "[13]": {"substrate": "O=c1[nH]cc(C(F)(F)F)c(=O)[nH]1", "settings": "Orthopoxvirus vaccinia; WR"}, "[14]": {"substrate": "Nc1nc(=O)n([C@@H]2O[C@H](CO)[C@@H](O)[C@@H]2F)cc1I", "settings": "Orthopoxvirus vaccinia; WR"}},
  "data": [
    {"molecule": "Cc1cn([C@H]2C[C@H](O)[C@@H](CO)O2)c(=O)[nH]c1=O", "values": [
      {"measurement": "Km", "setting": "Homo sapiens", "value": 23, "unit": "µM"}
    ]},
    {"molecule": "Nc1nc(=O)n([C@@H]2O[C@H](CO)[C@@H](O)[C@@H]2F)cc1I", "values": [
      {"measurement": "Km", "setting": "Homo sapiens", "value": "> 135", "unit": "µM"}
    ]},
    {"molecule": "O=c1[nH]cc(C(F)(F)F)c(=O)[nH]1", "values": [
      {"measurement": "Km", "setting": "Homo sapiens", "value": 47, "unit": "µM"}
    ]},
    {"molecule": "N#CC1=C(N)OC2=C(C(=O)CCC2)C1c1cn([C@H]2C[C@H](O)[C@@H](CO)O2)c(=O)[nH]c1=O", "note": "(stereo partly specified)", "values": [
      {"measurement": "EC50", "setting": "Cowpox virus [1]", "value": 1900, "unit": "nM"},
      {"measurement": "EC50", "setting": "Cowpox virus [2]", "value": 67, "unit": "µM"},
      {"measurement": "EC50", "setting": "Human alphaherpesvirus 1 [3]", "value": 8.6, "unit": "µM"},
      {"measurement": "EC50", "setting": "Human alphaherpesvirus 1 [4]", "value": 13, "unit": "µM"},
      {"measurement": "EC50", "setting": "Human alphaherpesvirus 2 [5]", "value": 12, "unit": "µM"},
      {"measurement": "EC50", "setting": "Cowpox virus [6]", "value": 2, "unit": "µM"},
      {"measurement": "EC50", "setting": "Vaccinia virus", "value": 4.6, "unit": "µM"},
      {"measurement": "EC50", "setting": "Human alphaherpesvirus 2 [7]", "value": 12, "unit": "µM"},
      {"measurement": "EC50", "setting": "Human alphaherpesvirus 3", "value": 16, "unit": "µM"}
    ]},
    {"molecule": "N#CC(C#N)=Cc1cn([C@H]2C[C@H](O)[C@@H](CO)O2)c(=O)[nH]c1=O", "values": [
      {"measurement": "EC50", "setting": "Cowpox virus [1]", "value": 1900, "unit": "nM"},
      {"measurement": "EC50", "setting": "Cowpox virus [2]", "value": 46, "unit": "µM"},
      {"measurement": "EC50", "setting": "Human alphaherpesvirus 1 [3]", "value": 11, "unit": "µM"},
      {"measurement": "Km", "setting": "Homo sapiens", "value": 113, "unit": "µM"},
      {"measurement": "EC50", "setting": "Human alphaherpesvirus 1 [4]", "value": 14, "unit": "µM"},
      {"measurement": "EC50", "setting": "Human alphaherpesvirus 2 [5]", "value": 12, "unit": "µM"},
      {"measurement": "EC50", "setting": "Cowpox virus [6]", "value": 21, "unit": "µM"},
      {"measurement": "EC50", "setting": "Vaccinia virus", "value": 17, "unit": "µM"},
      {"measurement": "EC50", "setting": "Human alphaherpesvirus 2 [7]", "value": 11, "unit": "µM"},
      {"measurement": "EC50", "setting": "Human alphaherpesvirus 3", "value": 15, "unit": "µM"}
    ]},
    {"molecule": "O=c1[nH]c(=O)n([C@@H]2O[C@H](CO)[C@@H](O)[C@@H]2F)cc1I", "values": [
      {"measurement": "Km", "setting": "Homo sapiens", "value": 66, "unit": "µM"}
    ]},
    {"molecule": "CC1(C)CC(=O)C2=C(C1)OC(N)=C(C#N)C2c1cn([C@H]2C[C@H](O)[C@@H](CO)O2)c(=O)[nH]c1=O", "note": "(stereo partly specified)", "values": [
      {"measurement": "EC50", "setting": "Cowpox virus [1]", "value": 3100, "unit": "nM"},
      {"measurement": "EC50", "setting": "Cowpox virus [2]", "value": 67, "unit": "µM"},
      {"measurement": "EC50", "setting": "Human alphaherpesvirus 1 [3]", "value": 7.3, "unit": "µM"},
      {"measurement": "Km", "setting": "Homo sapiens", "value": "> 200", "unit": "µM"},
      {"measurement": "EC50", "setting": "Human alphaherpesvirus 1 [4]", "value": 17, "unit": "µM"},
      {"measurement": "EC50", "setting": "Human alphaherpesvirus 2 [5]", "value": 14, "unit": "µM"},
      {"measurement": "EC50", "setting": "Cowpox virus [6]", "value": 8.4, "unit": "µM"},
      {"measurement": "EC50", "setting": "Vaccinia virus", "value": 7.9, "unit": "µM"},
      {"measurement": "EC50", "setting": "Human alphaherpesvirus 2 [7]", "value": 13, "unit": "µM"},
      {"measurement": "EC50", "setting": "Human alphaherpesvirus 3", "value": 9.2, "unit": "µM"}
    ]},
    {"molecule": "O=c1[nH]c(=O)n([C@H]2C[C@H](O)[C@@H](CO)O2)cc1Br", "values": [
      {"measurement": "Km", "setting": "Homo sapiens", "value": 46, "unit": "µM"}
    ]},
    {"molecule": "O=c1[nH]c(=O)n([C@H]2C[C@H](O)[C@@H](CO)O2)cc1F", "values": [
      {"measurement": "Km", "setting": "Homo sapiens", "value": 96, "unit": "µM"}
    ]},
    {"molecule": "Nc1ccn(C[C@@H](CO)OCP(=O)(O)O)c(=O)n1", "note": "[CIDOFOVIR]", "values": [
      {"measurement": "EC50", "setting": "Cowpox virus [1]", "value": 10000, "unit": "nM"},
      {"measurement": "EC50", "setting": "Cowpox virus [2]", "value": 16, "unit": "µM"},
      {"measurement": "EC50", "setting": "Cowpox virus [6]", "value": 32, "unit": "µM"},
      {"measurement": "EC50", "setting": "Vaccinia virus", "value": 11, "unit": "µM"}
    ]},
    {"molecule": "Nc1nc2c(ncn2COCCO)c(=O)[nH]1", "note": "[ACYCLOVIR]", "values": [
      {"measurement": "EC50", "setting": "Human alphaherpesvirus 1 [3]", "value": 1.3, "unit": "µM"},
      {"measurement": "EC50", "setting": "Human alphaherpesvirus 1 [4]", "value": "> 444", "unit": "µM"},
      {"measurement": "EC50", "setting": "Human alphaherpesvirus 2 [5]", "value": "> 444", "unit": "µM"},
      {"measurement": "EC50", "setting": "Human alphaherpesvirus 2 [7]", "value": 3.1, "unit": "µM"},
      {"measurement": "EC50", "setting": "Human alphaherpesvirus 3", "value": 8.5, "unit": "µM"}
    ]},
    {"molecule": "O=c1[nH]c(=O)n([C@H]2C[C@H](O)[C@@H](CO)O2)cc1I", "note": "[IDOXURIDINE]", "values": [
      {"measurement": "EC50", "setting": "Cowpox virus [1]", "value": 1100, "unit": "nM"},
      {"measurement": "EC50", "setting": "Cowpox virus [2]", "value": 76, "unit": "µM"},
      {"measurement": "Km", "setting": "Homo sapiens", "value": 38, "unit": "µM"},
      {"measurement": "EC50", "setting": "Cowpox virus [6]", "value": 1.8, "unit": "µM"},
      {"measurement": "EC50", "setting": "Vaccinia virus", "value": 5.6, "unit": "µM"}
    ]},
    {"molecule": "CCOC(=O)/C(C#N)=C/c1cn([C@H]2C[C@H](O)[C@@H](CO)O2)c(=O)[nH]c1=O", "values": [
      {"measurement": "EC50", "setting": "Cowpox virus [1]", "value": 1900, "unit": "nM"},
      {"measurement": "EC50", "setting": "Cowpox virus [2]", "value": 71, "unit": "µM"},
      {"measurement": "EC50", "setting": "Human alphaherpesvirus 1 [3]", "value": 7.6, "unit": "µM"},
      {"measurement": "Km", "setting": "Homo sapiens", "value": 118, "unit": "µM"},
      {"measurement": "EC50", "setting": "Human alphaherpesvirus 1 [4]", "value": 16, "unit": "µM"},
      {"measurement": "EC50", "setting": "Human alphaherpesvirus 2 [5]", "value": 11, "unit": "µM"},
      {"measurement": "EC50", "setting": "Cowpox virus [6]", "value": 11, "unit": "µM"},
      {"measurement": "EC50", "setting": "Vaccinia virus", "value": 18, "unit": "µM"},
      {"measurement": "EC50", "setting": "Human alphaherpesvirus 2 [7]", "value": 8.3, "unit": "µM"},
      {"measurement": "EC50", "setting": "Human alphaherpesvirus 3", "value": 48, "unit": "µM"}
    ]},
    {"molecule": "B1", "values": [
      {"measurement": "Km", "setting": "[8]", "value": 97, "unit": "µM"},
      {"measurement": "Km", "setting": "[9]", "value": 113, "unit": "µM"},
      {"measurement": "Km", "setting": "[10]", "value": 9.6, "unit": "µM"},
      {"measurement": "Km", "setting": "[11]", "value": 13, "unit": "µM"},
      {"measurement": "Km", "setting": "[12]", "value": 30, "unit": "µM"},
      {"measurement": "Km", "setting": "[13]", "value": 14, "unit": "µM"},
      {"measurement": "Km", "setting": "[14]", "value": "> 135", "unit": "µM"}
    ]}
  ]
}
